According to US20250140406A1, “CLASSIFYING TUMORS AND PREDICTING RESPONSIVENESS” (Oncocyte Corporation, priority 2022, published 2025):
Where two headings read alike, the source gives them in different places.

Assays:
[1] = test system: cancer cell lines classified IM, MSL, M; experiment: PRISM screen compound sensitivity correlated with IM, MSL and M subtype of cell lines (101 gene signature); assay type: cell-based; conditions: for TNBCType train: 101 gene signature
[2] = test system: cancer cell lines, DetermaIO classes; experiment: Association of PRISM compound sensitivity with DetermaIO (DTIO) cell line classes; assay type: cell-based
[3] = correlation of PRISM compound sensitivity with IM subtype correlation, test cell set (188 cell lines)
[4] = correlation of PRISM compound sensitivity with M subtype correlation, test cell set (188 cell lines)
[5] = correlation of PRISM compound sensitivity with MSL subtype correlation, test cell set (188 cell lines)
[6] = subtype (IM, MSL or M) assigned to the compound by negative correlation of PRISM sensitivity with subtype, training cell set (371 cell lines)
[7] = correlation of PRISM compound sensitivity with DTIO (DetermaIO), test cell set (188 cell lines)
[8] = correlation of PRISM compound sensitivity with DTIO (DetermaIO), training cell set (371 cell lines)
[9] = subtype (IM, MSL or M) the PRISM compound sensitivity is associated with, training cell set (371 cell lines)
[10] = correlation of PRISM compound sensitivity with DTIO, test cell set (188 cell lines)
[11] = correlation of PRISM compound sensitivity with DTIO, training cell set (371 cell lines)
[12] = subtype (IM, MSL or M) with which compound sensitivity is negatively correlated, training cell set (371 cell lines)
[13] = correlation of PRISM compound sensitivity with DTIO, test cell set
[14] = correlation of PRISM compound sensitivity with DTIO, training cell set
[15] = correlation of PRISM compound sensitivity with IM subtype correlation, test cell set
[16] = correlation of PRISM compound sensitivity with M subtype correlation, test cell set
[17] = correlation of PRISM compound sensitivity with MSL subtype correlation, test cell set
[18] = subtype (IM, MSL or M) with which PRISM compound sensitivity is negatively correlated, training cell set

SMILES	IM Corr test [1, 3]	M Corr test [1, 4]	MSL Corr test [1, 5]	DTIO Corr test [2, 13]	DTIO Corr train [2, 14]	also measured
CC[C@H](C)[C@@H]([C@@H](CC(=O)N1CCC[C@H]1[C@H](OC)[C@@H](C)C(=O)N[C@@H](Cc1ccccc1)c1nccs1)OC)N(C)C(=O)[C@@H](NC(=O)[C@H](C(C)C)N(C)C)C(C)C [dolastatin-10]	−0.05477	0.003299	−0.00011			TNBCType train [1, 6]: MSL; DTIO Corr test [2, 7]: −0.08086; DTIO Corr train [2, 8]: −0.07579
C[C@H](N[C@@H](CCc1ccccc1)C(=O)O)C(=O)N1CCC[C@H]1C(=O)O [enalaprilat]	0.03404	−0.06381	−0.1038			TNBCType train [1, 9]: MSL; DTIO Corr test [2, 10]: −0.03184; DTIO Corr train [2, 11]: 0.0604
C=C1C[C@@H]2[C@H](CC[C@]3(C)C(=O)CC[C@@H]23)[C@@]2(C)C=CC(=O)C=C12 [exemestane]						IM Corr test [1]: 0.07921; M Corr test [1]: −0.1056; MSL Corr test [1]: −0.04525; DTIO Corr test [2]: 0.03291; DTIO Corr train [2]: 0.03081
CCC(O)(c1ccccc1)c1cccc(C(F)(F)F)c1 (stereo not shown) [flumecinol]	0.06404	−0.06491	−0.09398	0.03786	0.02706	TNBCType train [1, 12]: MSL
OCCN1CCN(CC/C=C2/c3ccccc3Sc3ccc(C(F)(F)F)cc32)CC1 [flupentixol]	−0.05449	0.1086	0.1536			DTIO Corr test [2, 7]: −0.04775; DTIO Corr train [2, 8]: −0.1041
C[C@H](C(=O)O)c1ccc(-c2ccccc2)c(F)c1 [flurbiprofen-(S)-(+)]	−0.0194	0.01889	0.02942			DTIO Corr test [2, 7]: −0.0319; DTIO Corr train [2, 8]: −0.04195
CNC(=O)CN(CCN(CCN(CC(=O)[O-])CC(=O)NC)CC(=O)[O-])CC(=O)[O-].[Gd+3] [gadodiamide]				−0.0433	−0.1128	IM Corr test [1, 15]: −0.07426; M Corr test [1, 16]: 0.04886; MSL Corr test [1, 17]: −0.03759
CC(O)CN1CCN(CC(=O)[O-])CCN(CC(=O)[O-])CCN(CC(=O)[O-])CC1.[Gd+3] (stereo not shown) [gadoteridol]	−0.02624	−0.02135	−0.00929	−0.08228	−0.04116	TNBCType train [1, 12]: MSL
CC(C)=CCC[C@](C)(O[C@@H]1O[C@H](CO)[C@@H](O)[C@H](O)[C@H]1O)[C@H]1CC[C@]2(C)[C@@H]1[C@H](O)C[C@@H]1[C@@]3(C)CC[C@H](O[C@@H]4O[C@H](CO)[C@@H](O)[C@H](O)[C@H]4O[C@@H]4O[C@H](CO)[C@@H](O)[C@H](O)[C@H]4O)C(C)(C)[C@@H]3CC[C@]12C [ginsenoside-rd]						IM Corr test [1]: −0.05744; M Corr test [1]: −0.00784; MSL Corr test [1]: −0.02352; TNBCType train [1, 12]: MSL; DTIO Corr test [2]: −0.0392; DTIO Corr train [2]: −0.02011
CC(C)=CCC[C@](C)(O)[C@H]1CC[C@]2(C)[C@@H]1[C@H](O)C[C@@H]1[C@@]3(C)CC[C@H](O[C@@H]4O[C@H](CO)[C@@H](O)[C@H](O)[C@H]4O[C@@H]4O[C@H](CO)[C@@H](O)[C@H](O)[C@H]4O)C(C)(C)[C@@H]3CC[C@]12C [ginsenoside-rg3]	0.007852	−0.05841	−0.02955	−0.00056	0.0566	
CC(C)C[C@H](NC(=O)CNC(=O)[C@H](Cc1ccc(O)cc1)NC(=O)[C@H](CO)NC(=O)[C@H](Cc1c[nH]c2ccccc12)NC(=O)[C@H](Cc1cnc[nH]1)NC(=O)[C@@H]1CCC(=O)N1)C(=O)N[C@@H](CCCNC(=N)N)C(=O)N1CCC[C@H]1C(=O)NCC(N)=O [gonadorelin]	−0.1061	−0.01145	−0.1224			TNBCType train [1, 9]: MSL; DTIO Corr test [2, 10]: −0.06774; DTIO Corr train [2, 11]: −0.05189
O=C(O)Cc1cccnc1C(=O)O [homoquinolinic-acid]				−0.0252	−0.1121	IM Corr test [1, 15]: −0.08778; M Corr test [1, 16]: 0.05663; MSL Corr test [1, 17]: 0.003236
O=C(O)CCCN1C(=O)c2cccc3cccc(c23)C1=O [isodibut]	−0.04572	−0.03436	−0.1039			TNBCType train [1, 6]: MSL; DTIO Corr test [2, 7]: −0.0652; DTIO Corr train [2, 8]: 0.05075
CNC(C)CCC=C(C)C.CNC(C)CCC=C(C)C.O=C(O)[C@@H](O)[C@H](O)[C@H](O)[C@@H](O)C(=O)O [isometheptene-mucate]	−0.09289	0.05313	0.118	−0.04443	−0.1179	
C[C@]12CC[C@H]3[C@@H](CC[C@]4(O)C[C@@H](O)CC[C@]34C=O)[C@@]1(O)CC[C@@H]2C1=CC(=O)OC1 [k-strophanthidin]	−0.06974	−0.03165	−0.1099	−0.03307	−0.01124	TNBCType train [1, 12]: MSL
O=C(CCn1cnc2c(=O)[nH]cnc21)Nc1ccc(C(=O)O)cc1 [leteprinim]				0.02507	−0.08293	IM Corr test [1, 15]: 0.08575; M Corr test [1, 16]: −0.1262; MSL Corr test [1, 17]: −0.09795; TNBCType train [1, 18]: MSL
N=C(N)NC(=N)Nc1cccc(Cl)c1 [m-Chlorophenylbiguanide]				−0.0968	−0.09639	IM Corr test [1, 15]: −0.148; M Corr test [1, 16]: 0.08655; MSL Corr test [1, 17]: 0.1129
O=C(O)[C@H](O)[C@@H](O)[C@H](O[C@@H]1O[C@H](CO)[C@H](O)[C@H](O)[C@H]1O)[C@H](O)CO [maltobionic-acid]	0.1078	−0.08169	0.03716	0.13	0.09859	
CCOC(=O)c1c(C)n(C)c2ccc(O)cc12 [mecarbinate]				−0.09259	−0.07862	IM Corr test [1, 15]: −0.08712; M Corr test [1, 16]: 0.04238; MSL Corr test [1, 17]: −0.08851
CC(C)(CCCCCCCCCCC(C)(C)CC(=O)O)CC(=O)O [medica-16]	−0.06152	0.01613	−0.1086			TNBCType train [1, 6]: MSL; DTIO Corr test [2, 7]: 0.004343; DTIO Corr train [2, 8]: −0.05017
[O-][n+]1cccc(CO)c1 [mepiroxol]	−0.07855	0.0253	0.01789			DTIO Corr test [2, 7]: −0.08258; DTIO Corr train [2, 8]: −0.1082
CC(C)(C)NCc1cc(Nc2ccnc3cc(Cl)ccc23)c2c(c1O)CCCC2.O=P(O)(O)O.O=P(O)(O)O [naphthoquine-phosphate]	−0.01598	0.03443	−0.02275	0.04517	0.03212	TNBCType train [1, 12]: MSL
O=[N+]([O-])c1ccc([As](=O)(O)O)cc1 [nitarsone]	−0.01836	0.02346	−0.02358			TNBCType train [1, 6]: MSL; DTIO Corr test [2, 7]: −0.04129; DTIO Corr train [2, 8]: 0.03389
C#C[C@]1(OC(=O)CCCCCC)CC[C@H]2[C@@H]3CCC4=CC(=O)CC[C@@H]4[C@H]3CC[C@@]21C [norethisterone-enanthate]						IM Corr test [1]: −0.05873; M Corr test [1]: 0.01774; MSL Corr test [1]: 0.1042; DTIO Corr test [2]: 0.009756; DTIO Corr train [2]: −0.1312
COc1ccc(C2=N[C@@H](c3ccc(Cl)cc3)[C@@H](c3ccc(Cl)cc3)N2C(=O)N2CCNC(=O)C2)c(OC(C)C)c1 [nutlin-3]	0.06852	−0.07413	0.03536	0.1503	0.1606	
C[N+](C)(C)CC#CCN1CCCC1=O [oxotremorine-m]	−0.08895	0.05992	0.09728	−0.1128	−0.0669	
CC[C@H](C)[C@@H]1NC(=O)[C@H](Cc2ccc(O)cc2)NC(=O)[C@@H](N)CSSC[C@@H](C(=O)N2CCC[C@H]2C(=O)N[C@@H](CC(C)C)C(=O)NCC(N)=O)NC(=O)[C@H](CC(N)=O)NC(=O)[C@H](CCC(N)=O)NC1=O [oxytocin]				−0.07667	0.04167	IM Corr test [1, 15]: −0.06688; M Corr test [1, 16]: 0.01789; MSL Corr test [1, 17]: −0.03975; TNBCType train [1, 18]: MSL
CN1C(=O)C(N2CCCCC2)S/C1=C\C(=O)O (stereo not shown) [ozolinone]	−0.1322	−0.01029	−0.06039	−0.09683	0.04306	TNBCType train [1, 12]: MSL
